Reference: US20110245537A1, “L-carnitine calcium fumarate, preparation method and application for the same” (Liaoning Konepnutra Co., Ltd, priority 2009, published 2011)

Key:
[1] = cited from earlier work
[2] = hygroscopicity: caking or sticking on exposure to air; type: physicochemical; conditions: 25° C., relative humidity of 60±5%, 24 hours exposure to air
From the text: The obtained L-carnitine calcium fumarate is in uniform powder form with good fluidity, more than 98% of which is smaller than 40 mesh size. […] The product has a calcium content of 6.76% with good non-hygrosopicity.
The obtained L-carnitine calcium fumarate is in uniform powder form and has good fluidity, greater than 98% of which is smaller than 40 mesh in granular size. […] The product has a calcium content of 9.28%, with better non-hygrosopicity.

## C[N+](C)(C)C[C@H](O)CC(=O)[O-].O=C(O)C(O)C(O)C(=O)O [L-carnitine tartrate, L-carnitine L-tartrate]
[1]
  relative humidity at which the salt will deliquesce: over 60%

## L-Carnitine Calcium Fumarate (1:2:1) [Example 2]
[2]
  caking or sticking phenomena (non-hygroscopicity): no caking or sticking phenomena

## L-Carnitine Calcium Fumarate (2:2:1) [Example 1]
[2]
  caking or sticking phenomena (non-hygroscopicity): no caking or sticking phenomena
